Patent publication US9144239B2, “Macrocyclic picolinamides as fungicides” (DOW AGROSCIENCES LLC, priority 2012, dated 2015)
Like-named read-outs stand apart in the source and are kept apart here.

Assays:
Format in all cases: in vivo
Uncinula necator = assay: Fungicidal activity: grape powdery mildew (UNCINE); settings: Erysiphe necator, 24 h, 1 Day Protectant, read-out: Disease Control UNCINE 1 DP
Procedure: Technical grades of materials were dissolved in acetone, which were then mixed with nine volumes of water containing 110 ppm Triton X-100. The fungicide solutions were applied onto wheat seedlings using an automated booth sprayer to run-off. All sprayed plants were allowed to air dry prior to further handling. Wheat plants (variety Yuma) were grown from seed in a greenhouse in 50% mineral soil/50% soil-less Metro mix until the first leaf was fully emerged, with 7-10 seedlings per pot. These plants were inoculated with an aqueous spore suspension of Septoria tritici either prior to or after fungicide treatments. After inoculation the plants were kept in 100% relative humidity (one day in a dark dew chamber followed by two to three days in a lighted dew chamber at 20° C.) to permit spores to germinate and infect the leaf. The plants were then transferred to a greenhouse set at 20° C. for disease to develop. When disease symptoms were fully expressed on the 1st leaves of untreated plants, infection levels were assessed on a scale of 0 to 100 percent disease severity. Percent disease control was calculated using the ratio of disease severity on treated plants relative to untreated plants. Evaluation of Fungicidal Activity: Grape Powdery Mildew (Uncinula necator; Bayer Code […]) Grape seedlings (variety Carignane) were grown in soil-less Metro mix, with one plant per pot, and used in the test when approximately one month old. Plants were inoculated 24 hr after fungicide treatment by shaking spores from infected leaves over test plants. Plants were maintained in a greenhouse set at 20° C. until disease was fully developed. Fungicide formulation, application and disease assessment on the sprayed leaves followed the procedures as described in the Example A.

[1] = system: Puccinia triticina; synonym: Puccinia recondita f. sp. tritici; assay: Fungicide mobility (dropline mobility test): wheat brown rust (PUCCRT); settings: 1 ug/leaf
Procedure, shortened: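 A 2 μl drop of formulated compound (EC blank, 110 ppm Triton X-100 water) was applied to a line 5 cm from the tip of primary leaves of "Yuma" wheat seedlings, 6 replicates. Inoculation with PUCCRT was done 1 day after or 3 days before application. Once disease was fully expressed on controls, the acropetal disease-free zone was measured as percent of line-to-tip distance.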

Venturia inaequalis = assay: Fungicidal activity: apple scab (VENTIN); settings: 24 h, 1 Day Protectant, read-out: Disease Control VENTIN 1 DP
Procedure: Technical grades of materials were dissolved in acetone, which were then mixed with nine volumes of water containing 110 ppm Triton X-100. The fungicide solutions were applied onto wheat seedlings using an automated booth sprayer to run-off. All sprayed plants were allowed to air dry prior to further handling. Wheat plants (variety Yuma) were grown from seed in a greenhouse in 50% mineral soil/50% soil-less Metro mix until the first leaf was fully emerged, with 7-10 seedlings per pot. These plants were inoculated with an aqueous spore suspension of Septoria tritici either prior to or after fungicide treatments. After inoculation the plants were kept in 100% relative humidity (one day in a dark dew chamber followed by two to three days in a lighted dew chamber at 20° C.) to permit spores to germinate and infect the leaf. The plants were then transferred to a greenhouse set at 20° C. for disease to develop. When disease symptoms were fully expressed on the 1st leaves of untreated plants, infection levels were assessed on a scale of 0 to 100 percent disease severity. Percent disease control was calculated using the ratio of disease severity on treated plants relative to untreated plants. Evaluation of Fungicidal Activity: Apple Scab (Venturia inaequalis; Bayer Code […]) Apple seedlings (variety McIntosh) were grown in soil-less Metro mix, with one plant per pot. Seedlings with two expanding young leaves at the top (older leaves at bottom of the plants were trimmed) were used in the test. Plants were inoculated with a spore suspension of Venturia inaequalis 24 hr after fungicide treatment and kept in a 22° C. dew chamber with 100% RH for 48 hr, and then moved to a greenhouse set at 20° C. for disease to develop. Fungicide formulation, application and disease assessment on the sprayed leaves followed the procedures as described in the Example A.

Phakopsora pachyrhizi = assay: Fungicidal activity: Asian soybean rust (PHAKPA); settings: 25 ppm; for Disease Control PHAKPA 1DP: 1 Day Protectant; for Disease Control PHAKPA 3DC: 3 Day Curative
Procedure: Evaluation of Fungicidal Activity: Asian Soybean Rust (Phakopsora pachyrhizi; Bayer Code […]) Technical grades of materials were dissolved in acetone, which were then mixed with nine volumes of water containing 0.011% Tween 20. The fungicide solutions were applied onto soybean seedlings using an automated booth sprayer to run-off. All sprayed plants were allowed to air dry prior to further handling. Soybean plants (variety Williams 82) were grown in soil-less Metro mix, with one plant per pot. Two weeks old seedlings were used for testing. […] Plants were incubated for 24 h in a dark dew room at 22° C. and 100% RH then transferred to a growth room at 23° C. for disease to develop. Disease severity was assessed on the sprayed leaves.

Erysiphe cichoracearum = assay: Fungicidal activity: powdery mildew of cucumber (ERYSCI); settings: Golovinomyces cichoracearum, 24 h, 1 Day Protectant, read-out: Disease Control ERYSCI 1DP
Procedure: Technical grades of materials were dissolved in acetone, which were then mixed with nine volumes of water containing 110 ppm Triton X-100. The fungicide solutions were applied onto wheat seedlings using an automated booth sprayer to run-off. All sprayed plants were allowed to air dry prior to further handling. Wheat plants (variety Yuma) were grown from seed in a greenhouse in 50% mineral soil/50% soil-less Metro mix until the first leaf was fully emerged, with 7-10 seedlings per pot. These plants were inoculated with an aqueous spore suspension of Septoria tritici either prior to or after fungicide treatments. After inoculation the plants were kept in 100% relative humidity (one day in a dark dew chamber followed by two to three days in a lighted dew chamber at 20° C.) to permit spores to germinate and infect the leaf. The plants were then transferred to a greenhouse set at 20° C. for disease to develop. When disease symptoms were fully expressed on the 1st leaves of untreated plants, infection levels were assessed on a scale of 0 to 100 percent disease severity. Percent disease control was calculated using the ratio of disease severity on treated plants relative to untreated plants. Evaluation of Fungicidal Activity: Powdery Mildew of Cucumber (Erysiphe cichoracearum; Bayer Code […]) Cucumber seedlings (variety Bush Pickle) were grown in soil-less Metro mix, with one plant per pot, and used in the test when 12 to 14 days old. Plants were inoculated with a spore suspension 24 hr following fungicide treatments. After inoculation the plants remained in the greenhouse set at 20° C. until disease was fully expressed. Fungicide formulation, application and disease assessment on the sprayed leaves followed the procedures as described in the Example A.

[2] = 24 h, 1 Day Protectant Mobility, read-out: Dropline Mobility Test PUCCRT 1DPM
[3] = 72 h, 3 Day Curative Mobility, read-out: Dropline Mobility Test PUCCRT 3DCM

Row | Compound | pest or weed control at 100 ppm (Uncinula necator) [%] | pest or weed control at 1 µg/leaf [1, 2] [%] | pest or weed control at 1 µg/leaf [1, 3] [%] | pest or weed control at 100 ppm (Venturia inaequalis) [%] | Disease Control PHAKPA 1DP (Phakopsora pachyrhizi) | pest or weed control at 100 ppm (Erysiphe cichoracearum) [%] | Disease Control PHAKPA 3DC (Phakopsora pachyrhizi)
1 | CCCCO[C@H]1COC[C@H](NC(=O)c2nccc(OC)c2OCOC(C)=O)C(=O)O[C@@H](C)[C@@H]1OCCOC [Compound 54] | 0 to 80 | – | – | – | – | – | –
2 | COc1ccnc(C(=O)N[C@H]2COC[C@H](OC)[C@@H](OC)[C@H](C)OC2=O)c1OCOC(C)=O [Compound 65] | 0 to 80 | 0 to 80 | 0 to 80 | – | – | – | –
3 | COc1ccnc(C(=O)N[C@H]2COC[C@H](OCCCc3ccccc3)[C@@H](OCCCc3ccccc3)[C@H](C)OC2=O)c1OCOC(C)=O [Compound 60] | – | 0 to 80 | – | 0 to 80 | – | – | –
4 | CCC(C)(C)O[C@H]1COC[C@H](NC(=O)c2nccc(OC)c2OCOC(C)=O)C(=O)O[C@@H](C)[C@@H]1OCC(C)C [Compound 78] | 80 to 100 | 0 to 80 | 0 to 80 | 80 to 100 | A (80-100) | 80 to 100 | –
5 | COc1ccnc(C(=O)N[C@H]2COC[C@H](Oc3ccc(F)cc3)[C@@H](Oc3ccc(F)cc3)[C@H](C)OC2=O)c1OC(C)=O [Compound 229, 2-(((3S,7S,8S,9S)-7,8-bis(4-fluorophenoxy)-9-methyl-2-oxo-1,5-dioxonan-3-yl)carbamoyl)-4-methoxypyridin-3-yl acetate] | 80 to 100 | – | – | – | – | 0 to 80 | –
6 | COc1ccnc(C(=O)N[C@H]2COC[C@H](OCC(C)C)[C@@H](OC3CCCCC3)[C@H](C)OC2=O)c1OCOC(C)=O [Compound 77] | 80 to 100 | 80 to 100 | 0 to 80 | 0 to 80 | B (More than 0-Less than 80) | 0 to 80 | –
7 | COc1ccnc(C(=O)N[C@H]2COC[C@H](Oc3ccc(F)cc3)[C@@H](Oc3ccc(F)cc3)[C@H](C)OC2=O)c1OCOC(C)=O [Compound 231] | 80 to 100 | – | – | 0 to 80 | – | 0 to 80 | –
8 | COc1ccnc(C(=O)N[C@H]2COC[C@H](Oc3ccccc3)[C@@H](OCC(C)C)[C@H](C)OC2=O)c1OCOC(C)=O [Compound 86] | 80 to 100 | 80 to 100 | 0 to 80 | 0 to 80 | A (80-100) | 0 to 80 | A (80-100)
9 | COc1ccnc(C(=O)N[C@H]2COC[C@H](Oc3ccccc3)[C@@H](Oc3ccccc3)[C@H](C)OC2=O)c1OCOC(C)=O [Compound 84] | 0 to 80 | 80 to 100 | – | 0 to 80 | A (80-100) | 0 to 80 | A (80-100)
10 | COc1ccnc(C(=O)N[C@H]2COC[C@H](OCC(C)C)[C@@H](OCC(C)C)[C@H](C)OC2=O)c1OCOC(=O)C(C)C [Compound 2] | – | 80 to 100 | 80 to 100 | – | – | 80 to 100 | –
11 | CCCO[C@H]1COC[C@H](NC(=O)c2nccc(OC)c2OCOC(C)=O)C(=O)O[C@@H](C)[C@@H]1Oc1ccccc1 [Compound 221] | – | – | – | – | A (80-100) | – | A (80-100)
12 | COc1ccnc(C(=O)N[C@H]2COC[C@H](OCC(C)C)[C@@H](Oc3ccccc3)[C@H](C)OC2=O)c1OCOC(C)=O [Compound 85] | 80 to 100 | 80 to 100 | 80 to 100 | 0 to 80 | – | 0 to 80 | –
13 | COc1ccnc(C(=O)NC2COC[C@H](OCc3ccccc3)[C@@H](OCc3ccccc3)[C@H](C)OC2=O)c1OCOC(C)=O (stereo partly drawn) [Compound 12] | 0 to 80 | 0 to 80 | 0 to 80 | 0 to 80 | – | – | –
14 | CCCO[C@H]1[C@H](C)OC(=O)[C@@H](NC(=O)c2nccc(OC)c2OCOC(C)=O)COC[C@@H]1Oc1ccccc1 [Compound 222] | – | – | – | – | A (80-100) | – | A (80-100)
15 | COc1ccnc(C(=O)N[C@H]2COC[C@H](OCCCC(F)(F)F)[C@@H](OCCCC(F)(F)F)[C@H](C)OC2=O)c1OCOC(C)=O [Compound 68] | 0 to 80 | 0 to 80 | 0 to 80 | 0 to 80 | – | 0 to 80 | –
16 | COc1ccnc(C(=O)N[C@H]2COC[C@H](OC(=O)C(C)C)[C@@H](OC(=O)C(C)C)[C@H](C)OC2=O)c1OCOC(C)=O [Compound 57] | 0 to 80 | – | – | – | – | 0 to 80 | –
17 | COc1ccnc(C(=O)N[C@H]2COC[C@H](OCC(C)C)[C@@H](OCC(C)C)[C@H](C)OC2=O)c1OCOC(C)=O [Compound 3, (2-((3S,7S,8S,9S)-7,8-diisobutoxy-9-methyl-2-oxo-1,5-dioxonan-3-ylcarbamoyl)-4-methoxypyridin-3-yloxy)methyl] | 80 to 100 | 80 to 100 | 80 to 100 | 0 to 80 | A (80-100) | 0 to 80 | –
18 | CCCCO[C@H]1COC[C@H](NC(=O)c2nccc(OC)c2OCOC(C)=O)C(=O)O[C@@H](C)[C@@H]1OCC(F)F [Compound 55] | 0 to 80 | – | – | – | – | – | –
